Patent US20250122174A1 (Shenzhen Yuanli Shenwan Innovative Medicine Co., Ltd., priority 2022, published 2025)

Molecular target: HPK1 (Homo sapiens (Human), UniProt Q92918)
Experiment: HPK1 Inhibition Assay (ADP-Glo kinase assay)
Type: biochemical
Conditions: ATP 10 μM
In short: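 ADP-Glo luminescence read-out after 1 h room-temperature kinase reaction with 10 μM ATP and 0.1 μg/ml MBP. Recombinant human HPK1 at 7.5 ng/μl; buffer 40 mM Tris pH 7.5, 20 mM MgCl2. Compounds serially diluted 5-fold over 10 points from 10 mM DMSO stock.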

Sequence of HPK1 (Q92918 1-346 limits assumed): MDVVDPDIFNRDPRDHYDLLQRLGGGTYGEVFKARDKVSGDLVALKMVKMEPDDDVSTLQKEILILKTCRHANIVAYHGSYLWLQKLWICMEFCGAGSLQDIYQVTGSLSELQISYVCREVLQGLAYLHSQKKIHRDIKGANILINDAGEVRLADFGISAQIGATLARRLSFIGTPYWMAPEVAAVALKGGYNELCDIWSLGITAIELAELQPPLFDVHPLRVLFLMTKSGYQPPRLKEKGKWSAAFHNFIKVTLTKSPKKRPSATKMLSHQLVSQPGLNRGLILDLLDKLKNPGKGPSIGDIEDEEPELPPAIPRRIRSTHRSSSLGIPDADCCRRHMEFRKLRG

| Compound | IC50 [nM] |
| --- | --- |
| CCC(C)(C)n1cc2c(N3C[C@H](C)[C@@H](N)C3)c(NC(=O)c3ccc(=O)n(-c4c(F)cccc4F)n3)ccc2n1 [Example 243, N-(4-((3R,4S)-3-amino-4-methylpyrrolidin-1-yl)-2-(tert-pentyl)-2H-indazol-5-yl)-1-(2,6-difluorophenyl)-6-oxo-1,6-dihydropyridazine-3-carboxamide] | < 100 |
| CCC(C)(C)n1cc2c(N3C[C@@H](C)[C@@H](N)C3)c(NC(=O)c3ccc(=O)n(-c4c(F)cccc4F)n3)ccc2n1 [Example 244, 1-(2,6-difluorophenyl)-N-(4-[(3R,4R)-3-amino-4-methyltetrahydro-1H-pyrrol-1-yl]-2-(2-methylbut-2-yl)indazol-5-yl)-6-oxo-1,2-diazine-3-carboxamide] | < 100 |
| C[C@@H]1CN(c2c(NC(=O)c3ccc(=O)n(-c4c(F)cccc4F)n3)ccc3nn(C(C)(C)C(C)(C)C)cc23)C[C@@H]1N [Example 245, N-(4-((3R,4R)-3-amino-4-methylpyrrolidin-1-yl)-2-(2,3,3-trimethylbutan-2-yl)-2H-indazol-5-yl)-1-(2,6-difluorophenyl)-6-oxo-1,6-dihydropyridazine-3-carboxamide] | < 100 |
| CC(C)(C)C(C)(C)n1cc2c(N3C[C@H](N)C4(CC4)C3)c(NC(=O)c3ccc(=O)n(-c4c(F)cccc4F)n3)ccc2n1 [Example 246, (R)-N-(4-(7-amino-5-azaspiro[2.4]heptan-5-yl)-2-(2,3,3-trimethylbutan-2-yl)-2H-indazol-5-yl)-1-(2,6-difluorophenyl)-6-oxo-1,6-dihydropyridazine-3-carboxamide] | < 100 |
| CC(C)C(C)(C)n1cc2c(N3C[C@@H](C)[C@@H](N)C3)c(NC(=O)c3ccc(=O)n(-c4c(F)cccc4F)n3)ccc2n1 [Example 247, N-(4-((3R,4R)-3-amino-4-methylpyrrolidin-1-yl)-2-(2,3-dimethylbutan-2-yl)-2H-indazol-5-yl)-1-(2,6-difluorophenyl)-6-oxo-1,6-dihydropyridazine-3-carboxamide] | < 100 |
| CC(C)C(C)(C)n1cc2c(N3C[C@H](N)C4(CC4)C3)c(NC(=O)c3ccc(=O)n(-c4c(F)cccc4F)n3)ccc2n1 [Example 248, (R)-N-(4-(7-amino-5-azaspiro[2.4]heptan-5-yl)-2-(2,3-dimethylbutan-2-yl)-2H-indazol-5-yl)-1-(2,6-difluorophenyl)-6-oxo-1,6-dihydropyridazine-3-carboxamide] | < 100 |
| N[C@H]1CN(c2c(NC(=O)c3ccc(=O)n(-c4c(F)cccc4F)n3)ccc3c2cnn3[C@H]2CCOC2)CC12CC2 [Example 249, 1-(2,6-difluorophenyl)-N-{4-[(7R)-7-amino-5-azaspiro[2.4]heptan-5-yl]-1-[(3S)-tetrahydro-3-furyl]indazol-5-yl}-6-oxo-1,2-diazine-3-carboxamide] | < 100 |
| N[C@H]1CN(c2c(NC(=O)c3ccc(=O)n(-c4c(F)cccc4F)n3)ccc3c2cnn3[C@@H]2CCOC2)CC12CC2 [Example 250, N-(4-((R)-7-amino-5-azaspiro[2.4]heptan-5-yl)-1-((R)-tetrahydrofuran-3-yl)-1H-indazol-5-yl)-1-(2,6-difluorophenyl)-6-oxo-1,6-dihydropyridazine-3-carboxamide] | < 100 |
| N[C@H]1CN(c2c(NC(=O)c3ccc(=O)n(-c4c(F)cccc4F)n3)ccc3c2cnn3C2CCOCC2)CC12CC2 [Example 251, (R)-N-(4-(7-amino-5-azaspiro[2.4]heptan-5-yl)-1-(tetrahydro-2H-pyran-4-yl)-1H-indazol-5-yl)-1-(2,6-difluorophenyl)-6-oxo-1,6-dihydropyridazine-3-carboxamide] | < 100 |
| C[C@@H]1CN(c2c(NC(=O)c3ccc(=O)n(-c4c(F)cccc4F)n3)ccc3c2cnn3[C@@H]2CCCOC2)C[C@@H]1N [Example 252, N-(4-((3R,4R)-3-amino-4-methylpyrrolidin-1-yl)-1-((R)-tetrahydro-2H-pyran-3-yl)-1H-indazol-5-yl)-1-(2,6-difluorophenyl)-6-oxo-1,6-dihydropyridazine-3-carboxamide] | < 100 |
